What was measured:
[1] = target: EML4-ALK fusion protein v1 (Homo sapiens (Human), UniProt Q9UM73); assay: Inhibitory activity against the kinase activity of EML4-ALK fusion protein (HTRF KinEASE-TK); type: biochemical; conditions: ATP 100 μM, reaction 1 hour
From the text: A recombinant retrovirus was created from expression plasmid FLAG-EML4-ALKv1/pMX-iresCD8 in which cDNA for EML4-ALK fusion protein v1 was integrated, and injected into mouse lymphoid cell line BA/F3 cells. Using a magnetic bead reagent for cell separation and a purification column (anti-CD8 monoclonal antibody immobilized on magnetic beads and a MiniMACS purification column; both are products of Miltenyi Biotec Inc.), cell surface CD8-expressing cells were purified to establish EML4-ALK fusion protein v1-expressing BA/F3 cells. From the cells, EML4-ALK fusion protein v1 was purified and subjected to kinase activity evaluation. EML4-ALK fusion protein v1 was investigated for its phosphorylation activity toward a peptide substrate by using a kinase activity detection kit (HTRF KinEASE-TK; Cisbio Inc.). […] The ATP concentration used was 100 μM.

[2] = tested on: human non-small cell lung cancers cell line NCI-H2228 cells; assay: Antitumor test (in vivo) on NCI-H2228 cells; conditions: NOD/SCID mice
From the text: The antitumor effects on EML4-ALK fusion protein-dependent cells can also be confirmed by use of human non-small cell lung cancers cell line NCI-H2228 cells (cells derived from EML4-ALK fusion polynucleotide-positive lung cancer patients (EML4-ALK fusion protein v3-dependent cells)) in place of the EML4-ALK fusion protein v1 expressing 3T3 cells of Test Example 3, as shown below.
3×10^6 cells of NCI-H2228 cells suspended in 50% Matrigel (Invitrogen) were inoculated subcutaneously by injection to the back of 5 weeks old male NOD/SCID mice (Charles River Japan, Inc.). After 3 weeks of the inoculation, the administration of test compounds was initiated. The test was conducted in the solvent group and test compound groups, 6 animals per group. The test compounds were each dissolved in a solvent composed of 10% 1-methyl-2-pyrrolidinone (SIGMA-ALDRICH Inc.)/90% polyethylene glycol 300 (Fluka Inc.) and administered orally at a dose of 1 mg/kg. Administrations were performed once a day for 14 days, and body weight and tumor size were measured every other day. Tumor volume was calculated using the following formula. [Tumor volume(mm^3)]=[Tumor major axis(mm)]×[tumor minor axis(mm)]^2×0.5

[3] = tested on: BA/F3 cells expressing EML4-ALK fusion protein v1; assay: Growth inhibitory activity against EML4-ALK fusion protein-dependent cells; type: cell-based, mouse; conditions: Mus musculus, BaF3, 48 h, growth of EML4-ALK fusion protein v1-expressing BA/F3 cells, cultured 2 days
Protocol: EML4-ALK fusion protein v1-expressing BA/F3 cells can grow in the absence of IL-3. In other words, they are cells that EML4-ALK fusion protein v1-dependently grow.
In a 96-well plate (Iwaki), BA/F3 cells expressing EML4-ALK fusion protein v1 were seeded at 500 cells per well in RPMI1640 medium (Invitrogen) containing 10% fetal bovine serum, followed by addition of a test compound (final concentration: 10 μM to 0.1 nM). As a negative control, DMSO used as a solvent of the test compound was added. Then, the cells were cultured under 5% CO2 at 37° C. for 2 days. A cell counting reagent (AlmarBlue; Biosource) was added, and the cells were cultured for 150 minutes, followed by measurement of fluorescence intensity with a […] (Safire; Tecan) in accordance with instructions attached to the reagent.

[4] = tested on: EML4-ALK fusion protein v1 expressing 3T3 cells; assay: Antitumor test (in vivo) on EML4-ALK fusion protein v1 expressing 3T3 cells; conditions: oral 10 mg/kg once a day for 5 days, Balb/c nude mice, EML4-ALK v1 3T3 tumor; values marked (regression)
From the text: Expression plasmid EML4-ALKv1/pMXS in which cDNA for EML4-ALK fusion protein v1 was integrated was trasfected into 3T3 fibroblast cells by the phosphate calcium method to thereby establish EML4-ALK fusion protein v1 expressing 3T3 cells. 3×10^6 cells of EML4-ALK fusion protein v1 expressing 3T3 cells suspended in PBS were inoculated subcutaneously by injection to the back of 5 weeks old male Balb/c nude mice (Charles River Japan, Inc.). After 7 days of the inoculation, the administration of test compound was initiated. The test was conducted in the solvent group and the compound group, 4 animals per group. The test compound was suspended in a solvent composed of 0.5% methylcellulose and administered orally at a dose of 10 mg/kg. Administrations were performed once a day for 5 days, and body weight and tumor size were measured every other day. Tumor volume was calculated using the following formula. [Tumor volume(mm^3)]=[Tumor major axis(mm)]×[tumor minor axis(mm)]^2×0.5
When regression of tumor volume is induced from the day of starting administration, the tumor volume on the day of starting administration and the state in which the tumor disappeared were assumed to be 0% regression and 100% regression, respectively, and the rate of regression of the test compound was calculated.

RET protein = RET protein (Homo sapiens (Human), UniProt P07949); assay: Inhibitory activity against the kinase activity of RET protein; type: biochemical; conditions: RET kinase domain, ATP 100 μM, reaction 30 minutes
ROS protein = ROS protein (Homo sapiens (Human), UniProt P08922); assay: Inhibitory activity against the kinase activity of ROS protein; type: biochemical; conditions: ROS kinase domain, ATP 50 uM
ROS protein, sequence (P08922 1945-2222): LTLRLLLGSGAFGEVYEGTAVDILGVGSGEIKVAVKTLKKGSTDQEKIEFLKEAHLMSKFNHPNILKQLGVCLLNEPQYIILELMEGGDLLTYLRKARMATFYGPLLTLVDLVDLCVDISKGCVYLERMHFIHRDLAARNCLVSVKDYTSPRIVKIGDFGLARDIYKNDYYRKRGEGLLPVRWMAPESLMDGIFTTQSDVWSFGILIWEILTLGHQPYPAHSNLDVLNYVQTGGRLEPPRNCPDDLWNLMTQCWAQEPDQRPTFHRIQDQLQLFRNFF

EML4-ALK fusion protein v1, sequence (Q9UM73 other isoform, or with tags, fused parts or gaps): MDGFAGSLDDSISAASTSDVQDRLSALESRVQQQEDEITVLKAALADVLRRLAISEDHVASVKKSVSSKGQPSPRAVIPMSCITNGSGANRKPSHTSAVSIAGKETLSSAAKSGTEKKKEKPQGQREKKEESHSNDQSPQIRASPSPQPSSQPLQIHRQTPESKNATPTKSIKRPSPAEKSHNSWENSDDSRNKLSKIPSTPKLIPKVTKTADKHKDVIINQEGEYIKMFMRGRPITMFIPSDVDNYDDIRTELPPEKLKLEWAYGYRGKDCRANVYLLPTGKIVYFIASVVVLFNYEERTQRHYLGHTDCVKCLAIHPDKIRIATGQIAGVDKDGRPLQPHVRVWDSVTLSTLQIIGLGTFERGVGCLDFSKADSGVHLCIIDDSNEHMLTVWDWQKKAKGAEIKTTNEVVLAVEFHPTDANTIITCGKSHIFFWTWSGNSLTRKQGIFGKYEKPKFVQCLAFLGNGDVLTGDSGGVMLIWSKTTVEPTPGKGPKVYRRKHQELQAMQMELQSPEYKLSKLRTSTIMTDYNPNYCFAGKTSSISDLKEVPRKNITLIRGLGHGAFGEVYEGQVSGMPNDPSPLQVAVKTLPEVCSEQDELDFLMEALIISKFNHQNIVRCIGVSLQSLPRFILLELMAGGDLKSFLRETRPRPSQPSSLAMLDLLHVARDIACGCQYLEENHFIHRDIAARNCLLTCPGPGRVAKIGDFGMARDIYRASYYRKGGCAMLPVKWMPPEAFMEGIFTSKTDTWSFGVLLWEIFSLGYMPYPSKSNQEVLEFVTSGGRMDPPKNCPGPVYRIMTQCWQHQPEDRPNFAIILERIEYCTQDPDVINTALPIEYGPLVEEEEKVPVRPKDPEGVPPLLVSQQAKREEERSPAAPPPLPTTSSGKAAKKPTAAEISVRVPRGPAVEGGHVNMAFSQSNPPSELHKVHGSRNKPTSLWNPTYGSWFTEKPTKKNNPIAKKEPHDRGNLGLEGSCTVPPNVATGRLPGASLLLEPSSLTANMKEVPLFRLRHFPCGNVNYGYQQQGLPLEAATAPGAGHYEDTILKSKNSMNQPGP
RET protein, sequence (P07949 724-1016): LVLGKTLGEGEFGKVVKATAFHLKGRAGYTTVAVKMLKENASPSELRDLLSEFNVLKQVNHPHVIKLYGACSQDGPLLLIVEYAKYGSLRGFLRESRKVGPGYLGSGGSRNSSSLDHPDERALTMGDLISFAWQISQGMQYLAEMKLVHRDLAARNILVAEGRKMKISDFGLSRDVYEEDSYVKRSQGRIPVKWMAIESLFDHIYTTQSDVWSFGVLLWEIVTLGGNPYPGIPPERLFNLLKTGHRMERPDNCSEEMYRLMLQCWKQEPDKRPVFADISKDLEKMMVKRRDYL

Row | SMILES | IC50 [1] [nM] | growth inhibition against NCI-H2228 cells (tumor) compared with the solvent group ([2]; oral administration, Student's t-test) | IC50 [3] [nM] | inhibition rate of growth of tumor of NCI-H2228 cells ([2]; oral 1 mg/kg once a day for 14 days) [%] | rate of regression (tumor volume) [4] | IC50 (RET protein) [nM] | IC50 (ROS protein) [nM]
1 | CCc1nc(C(N)=O)c(Nc2cccc(C)c2)nc1NCCN(C)C [Compound Y, 5-{[2-(dimethylamino)ethyl]amino}-6-ethyl-3-[(3-methylphenyl)amino]pyrazine-2-carboxamide, reference compound] | > 1000 | no significant growth inhibition | > 1000 |  |  |  | 
2 | CC(C)c1nc(C(N)=O)c(Nc2ccc(N3CCC(N4CCN(C)CC4)CC3)cc2)nc1NC1CCOCC1 [Example 549] | 2.1 |  | 14 | 69 | 67 (regression) % |  | 
3 | CCc1nc(C(N)=O)c(Nc2ccc(N3CCC(N4CCN(C)CC4)CC3)c(OC)c2)nc1NC1CCOCC1 [Example 577] |  |  |  |  |  | 3.4 | 1.9

— patent publication US8969336B2, “Diamino heterocyclic carboxamide compound” (Astellas Pharma Inc., priority 2009, dated 2015)
